The test system of the experiment is S. feltiae infective juveniles (IJ). In words: Dispersal assay with S. feltiae infective juveniles on agar plates. Type of experiment: in vivo, Steinernema feltiae. As to conditions: S. feltiae IJs; for dispersal activity in combination with fractions B and C: ascr#11 1.3 pmol/μl, FIG. 1C, 1D; for dispersal activity by itself: physiologically relevant concentration (ascr#9 40.3 pmol/μl, ascr#11 1.3 pmol/μl), FIG. 1B. The procedure:
The dispersal assay for the activity guided purification in FIG. 1 used S. feltiae IJs that were washed with MILLI-Q water three times and incubated in 6 cm petri dishes for 36 h with a small amount (4-5 ml) of MILLI-Q water. The following day, nematodes were placed on a 10.7 g/L agar with gel strength 1010 g/cm^2 (PhytoTechnology Lab. Shawnee Mission, Kans.). Nematode behavior was assayed on multiple plates with internal plate replicates to rule out the possibility that behavior was affected by plate composition. Approximately 300 IJs in 10 μl water were placed on an agar medium and the test compounds or extracts were placed into 1-2 μl to the nematode suspension. Upon absorption (15-20 min) of the liquid, the freely moving nematodes were video-recorded for 5-10 min. Dispersal behavior is temperature and season dependent. During winter, the assay is effective at RT (22±1° C.). During summer, the assay requires a temperature-controlled environment due to effects on nematode behavior above 23° C.
Activity guided fractionation was conducted as described by Srinivasan et al 2008 with modifications. A total of 33 insect host cadavers (G. mellonella larvae) were placed into 70% EtOH and stored at −20° C. until extraction. The insect cadavers were homogenized using 1 g of ceramic zirconium beads (1.25 mm) (ZIRMIL) in 2 ml tubes for 37 sec using a Precellys24 (http://www.precellys.com) homogenizer. Samples were centrifuged for 15 min at 18400 rcf and the supernatant was lyophilized and resuspended in MILLI-Q water. The dispersal activity of nematodes was tested using the dispersal assay described herein above and a physiologically relevant concentration of insect host cadaver extract or fractionated extract. To facilitate calculations for physiologically relevant concentration of the ascarosides, wax worm volume was estimated at 200 μl; the average weight of wax worms was 232 (+/−57 mg; n=19).
The first reverse-phase solid-phase extraction was performed using Sep-Pak Plus C18 cartridges (Waters corporation, Milford, Mass.). The initially collected flow through was termed Fraction A. Thereafter, the column was washed with water, collected and saved. Subsequently, the column was eluted with 50% (Fraction B) and 90% MeOH (Fraction C). The fractions were tested for dispersal activity both individually and in combination. Also individual fractions were analyzed by LC-MS. Fraction A contained ascr#9, which was collected by LC-MS and tested for activity with Fraction B+C.
A total of 33 insect host cadavers ([…] larvae) were placed into 70% EtOH and were homogenized using 1 g of ceramic zirconium beads (1.25 mm) (ZIRMIL) in 2 ml tubes for 37 sec using a Precellys24 (http://www.precellys.com) homogenizer. Samples were centrifuged for 15 min at 18400 rcf and the supernatant was lyophilized and resuspended in MILLI-Q water. The dispersal activity of nematodes was tested using the dispersal assay described herein above. The extracts were resuspended in water as 10 times concentrated. The average weight of insect host is estimated 200 microL and therefore the dry cadavers extract from 1 insect equivalent was diluted in 20 microL of water. One microL of the concentrated extracts was added to the 10 ul of IJ water suspension.

These results are taken from patent US10736326B2, “Nematode dispersant composition and method” (PHERONYM, INC., priority 2016, dated 2020).

Entries after “also recorded” stand apart in the source; their conditions may differ.

On to `C[C@H](CCC(=O)O)O[C@@H]1O[C@@H](C)[C@H](O)C[C@H]1O` [ascr#9], for which the “dispersal activity by itself” value is on record as “not active by themselves”. In addition, for the setting “listed as natural ascr#9”, the “dispersal activity in combination with fractions B and C” value is on record as “active”. Under “listed as synthetic ascr#9”, the “dispersal activity in combination with fractions B and C” value is “confirms the active component”.
Consider `C[C@H](CC(=O)O)O[C@@H]1O[C@@H](C)[C@H](O)C[C@H]1O` [ascr#11], for which the “dispersal activity in combination with fractions B and C” value is “sufficient to cause dispersal; also recorded: active with the other two fractions”; the “dispersal activity by itself” value is recorded as “not active by themselves”.
